{"source": "patent US5932709A", "about": "(University of Michigan, priority 1997, dated 1999)", "key": {"[1]": {"system": "MX-1 human breast tumor xenograft", "assay": "in vivo", "from_the_text": "For all the models, the vehicle used to deliver the analog of interest was isotonic saline.\nFor the MX-1 human breast tumor xenograft models, the following procedure was used. Nude mice are implanted s.c. by trocar with fragments of MX-1 mammary carcinomas harvested from s.c. growing MX-1 tumors in nude mice hosts. When tumors are approximately 5 mm×5 mm in size (usually about ten days after inoculation), the animals are pair-matched into treatment and control groups. Each group contains ten tumored mice, each of which is ear-tagged and followed individually throughout the experiment. The administration of drugs or vehicle begins the day the animals are pair-matched (day 1). The doses, route of drug administration and schedule are selected as appropriate for the study in question. If the MTD dose of an agent is not known, it is determined in an initial dosing experiment in non-tumored mice. In a typical experiment, drugs are given at their MTD and 1/2 MTD doses i.p. on a daily×5 schedule.\nThe experiment is usually terminated when control tumors reach a size of 2-3 g. Mice are weighed twice weekly, and tumor measurements are taken by calipers twice weekly, starting on day 1. These tumor measurements are converted to mg tumor weight by a well known formula, and from these calculated tumor weights the termination date can be determined. Upon termination, all mice are weighed, sacrificed, and their tumors excised. Tumors are weighed, and the mean tumor weight per group is calculated.\nSome drugs cause tumor shrinkage in the MX-1 model. With these agents, the final weight of a given tumor is subtracted from its own weight at the start of the treatment on day 1. This difference divided by the initial tumor weight is the % shrinkage. A mean % tumor shrinkage can be calculated from data from the mice in a group that experienced MX-1 regressions. If the tumor completely disappears in a mouse, this is considered a complete regression or complete tumor shrinkage. If desired, mice with partial or total tumor regressions can be kept alive past the termination date to see whether they live to become long term, tumor-free survivors.\nNote that in the following table the abbreviation SR refers to tumor shrinkage rate, while those entries followed by a superscripted `2` are tumor growth inhibition rates, not tumor shrinkage rates."}, "[2]": {"system": "human prostate tumor xenograft", "assay": "Human prostate tumor xenograft model", "format": "in vivo, human tumor in nude mice", "from_the_text": "(§1) For the human lung and prostate tumor xenograft models the following procedure was used. Nude mice were implanted s.c. by trocar with fragments of human lung or prostate carcinomas harvested from s.c. growing tumors in nude mice hosts. When tumors were approximately 5 mm×5 mm in size (usually ten to fourteen days after inoculation), the animals were pair-matched into treatment and control groups. Each group contained 10 tumored mice, each of which was ear-tagged and followed individually throughout the experiment. […] The doses, route of drug administration and schedule were selected as appropriate for the study in question. (See above protocol). […] Topotecan was run as a positive control at its MTD dose on a daily×5 and a daily×1 schedule. Male nude mice were used for both prostate studies.\n(§2) Mice are weighed twice weekly, and tumor measurements were taken by calipers twice weekly, starting on day 1.\n(§3) Some drugs cause tumor shrinkage in the human tumor xenograft models. […] A mean % tumor shrinkage can be calculated from the data from the mice in a group that experienced tumor regressions."}, "[3]": {"system": "murine P388 leukemia", "assay": "Murine P388 leukemia model in vivo", "set-up": "species or system mouse (B6D2F1)", "method": "(§4) For the B16 melanoma model, the following procedure was used. B6D2F1 mice receive i.p. inocula of B16 murine melanoma brei prepared from B16 tumors growing s.c. in mice (day 0). […] If dosing information for agents is not available, the maximum tolerated dose (MTD) is determined in initial dose finding experiments in non-tumored mice.\n(§5) The mean survival times of all groups are calculated, and results are expressed as mean survival of treated mice/mean survival of control mice (T/C)×100%. A T/C value of 150 means that the mice in the treated group lived 50% longer than those of the control group; this is sometimes referred to as the increase in life span or ILS value.\nFor the P388 leukemia model, the procedure followed is exactly the same as the aforementioned B16 model. The tumor inoculum is prepared by removing ascited fluid containing P388 cells from tumored B6D2F1 mice, centrifuging the cells, and then resuspending the leukemia cells in saline. Mice receive 1×10^6 P388 cells i.p. on day 0."}, "[4]": {"system": "P388 murine leukemia", "details": "vs unmodified camptothecin, side by side; cited from earlier work"}, "[5]": {"system": "murine B16 melanoma", "assay": "Murine B16 melanoma model in vivo", "set-up": "species or system mouse (B6D2F1)", "details": "for Survivors: 60-day", "method": "1) Murine B16 Melanoma Model\nas §4, §5\nMice that survive for 60 days are considered long-term survivors, or cures, in the B16 model. The universally accepted cut-off for activity in this model, which has been for years by the National Cancer Institute, is T/C=125. Conventional use of B16 over the years has set the following levels of activity: T/C<125, no activity, T/C=125-150, weak activity; T/C=150-200, modest activity; T/C=200-300, high activity; T/C>300, with long term survivors; excellent, curative activity."}, "[6]": {"details": "as hydrochloride salt; cited from earlier work"}, "[7]": {"system": "human lung tumor xenograft", "assay": "Human lung tumor xenograft model", "format": "in vivo, human tumor in nude mice", "from_the_text": "as §1, §2, §3"}, "[8]": {"system": "B16 murine melanoma", "details": "vs unmodified camptothecin, side by side; cited from earlier work"}, "[9]": {"system": "tumor growth", "details": "in words; cited from earlier work"}, "[10]": {"details": "human, in vivo; cited from earlier work"}, "[11]": {"system": "carcinoma cells", "details": "in vitro clonogenic assay / tumor cell growth, in words; cited from earlier work"}, "[12]": {"target": "topoisomerase I", "details": "TPT-HCl; Wall et al.; cited from earlier work"}, "[13]": {"system": "Lewis lung carcinoma", "details": "vs unmodified camptothecin, side by side; cited from earlier work"}}, "note": "pIC50: −log10 of the molar value. “And” between values parts separate entries of the source, which are not always exact repeats. Equal entries are not always repeated. Structures can show the parent of a compound that is named as a salt.", "data": [{"smiles": "CC[C@@]1(O)C(=O)OCc2c1cc1n(c2=O)Cc2cc3c(CN(C)C)c(O)ccc3nc2-1", "note": "[TPT, [(s)-9-dimethylaminomethyl-10-hydroxycamptothecin hydrochloride], reference compound]", "values": [{"measurement": "weight loss", "setting": "[1]; 4 mg/kg", "value": 15, "unit": "%"}, {"measurement": "Tox Deaths", "setting": "[1]; 4 mg/kg i.p. daily×5", "value": "0/10"}, {"measurement": "ΔWeight (%)", "setting": "[1]; 4 mg/kg i.p. daily×5", "value": -15.4, "unit": "%"}, {"measurement": "mean tumor shrinkage", "setting": "[1]; 4 mg/kg i.p. daily×5, all 10 mice, HAR 6 experiment", "value": 94, "unit": "%"}, {"measurement": "Shrinkage (animals)", "setting": "[1]; 4 mg/kg i.p. daily×5, partial (94%)", "value": "6/10"}, {"measurement": "mice with tumor shrinkage", "setting": "[1]; 4 mg/kg, HAR 6 experiment", "value": 10}, {"measurement": "mortality", "setting": "[1]; 4 mg/kg, HAR 6 experiment", "value": "no mortality"}, {"measurement": "complete regressions", "setting": "[1]; 4 mg/kg, second experiment", "value": "one"}, {"measurement": "drug-related deaths", "setting": "[1]; 4 mg/kg, second experiment", "value": "one"}, {"measurement": "mice with tumor growth inhibition", "setting": "[1]; 4 mg/kg, second experiment", "value": "two"}, {"measurement": "partial responders", "setting": "[1]; 4 mg/kg, second experiment", "value": "six"}, {"measurement": "Shrinkage (animals)", "setting": "[1]; 4 mg/kg, complete (100%) shrinkage", "value": "1/10"}, {"measurement": "tumor growth inhibition", "setting": "[1]; 4 mg/kg, two mice, second experiment", "value": 94, "unit": "%"}, {"measurement": "SR(%) (Tumor Shrinkage Rate)", "setting": "[1]; in vivo", "value": "94% and 100%"}, {"measurement": "Deaths", "setting": "[2]; 3 mg/kg × 5 days", "value": "0/10"}, {"measurement": "Shrink (number of animals)", "setting": "[2]; 3 mg/kg × 5 days", "value": "0/10"}, {"measurement": "TGI (% Tumor Growth Inhibition Rate)", "setting": "[2]; 3 mg/kg × 5 days", "value": 35, "unit": "%"}, {"measurement": "TGI (number of animals)", "setting": "[2]; 3 mg/kg × 5 days", "value": "10/10"}, {"measurement": "Deaths", "setting": "[2]; 8 mg single ds", "value": "0/10"}, {"measurement": "Shrink (number of animals)", "setting": "[2]; 8 mg single ds", "value": "0/10"}, {"measurement": "TGI (number of animals)", "setting": "[2]; 8 mg single ds", "value": "0/10"}, {"measurement": "efficacy, single dose", "setting": "[2]; single dose, in words", "value": "completely ineffective"}, {"measurement": "30-day survivors", "setting": "[3]; 4 mg/kg daily×5", "value": "Three"}, {"measurement": "T/C (mean survival treated/control)", "setting": "[3]; 4 mg/kg i.p. daily×5", "value": 297, "unit": "%"}, {"measurement": "Tox Deaths", "setting": "[3]; 4 mg/kg i.p. daily×5", "value": "0/10"}, {"measurement": "ΔWeight (%)", "setting": "[3]; 4 mg/kg i.p. daily×5", "value": -6.6, "unit": "%"}, {"measurement": "Survivors", "setting": "[3]; 4 mg/kg i.p. daily×5, 30-day", "value": "3/10"}, {"measurement": "efficacy vs P388 leukemia", "setting": "[3]; i.p. five day schedule, in words", "value": "comparable to that produced by HAR 6"}, {"measurement": "in vivo antitumor efficacy", "setting": "[4]", "value": "superior to unmodified camptothecin"}, {"measurement": "60-day survivors (cures)", "setting": "[5]; 2 mg/kg", "value": "one"}, {"measurement": "T/C (mean survival treated/control)", "setting": "[5]; 2 mg/kg i.p. daily×5", "value": 201, "unit": "%"}, {"measurement": "Tox Deaths", "setting": "[5]; 2 mg/kg i.p. daily×5", "value": "0/10"}, {"measurement": "ΔWeight (%)", "setting": "[5]; 2 mg/kg i.p. daily×5", "value": "+1.9%"}, {"measurement": "Survivors", "setting": "[5]; 2 mg/kg i.p. daily×5", "value": "1/10"}, {"measurement": "T/C (mean survival treated/control)", "setting": "[5]; 2 mg/kg i.p. daily×5, listed as Topotecan", "value": 210, "unit": "%"}, {"measurement": "T/C (mean survival treated/control)", "setting": "[5]; 4 mg/kg i.p. daily×5", "value": 212, "unit": "%"}, {"measurement": "Tox Deaths", "setting": "[5]; 4 mg/kg i.p. daily×5", "value": "0/10"}, {"measurement": "ΔWeight (%)", "setting": "[5]; 4 mg/kg i.p. daily×5", "value": -7.0, "unit": "%"}, {"measurement": "Survivors", "setting": "[5]; 4 mg/kg i.p. daily×5", "value": "0/10"}, {"measurement": "water solubility", "setting": "[6]", "value": 1000, "unit": "µg/mL"}, {"measurement": "Deaths", "setting": "[7]; 4 mg/kg × 5 days", "value": "0/10"}, {"measurement": "Shrink (% Tumor Shrinkage Rate)", "setting": "[7]; 4 mg/kg × 5 days", "value": 55, "unit": "%"}, {"measurement": "Shrink (number of animals)", "setting": "[7]; 4 mg/kg × 5 days", "value": "2/10"}, {"measurement": "TGI (% Tumor Growth Inhibition Rate)", "setting": "[7]; 4 mg/kg × 5 days", "value": 66, "unit": "%"}, {"measurement": "TGI (number of animals)", "setting": "[7]; 4 mg/kg × 5 days", "value": "8/10"}, {"measurement": "Deaths", "setting": "[7]; 8 mg single ds", "value": "0/10"}, {"measurement": "Shrink (number of animals)", "setting": "[7]; 8 mg single ds", "value": "0/10"}, {"measurement": "TGI (number of animals)", "setting": "[7]; 8 mg single ds", "value": "0/10"}, {"measurement": "efficacy, single dose", "setting": "[7]; single dose, in words", "value": "completely ineffective"}, {"measurement": "in vivo antitumor efficacy", "setting": "[8]", "value": "superior to unmodified camptothecin"}, {"measurement": "effectiveness against tumor growth in animal studies", "setting": "[9]", "value": "at least as good or better than camptothecin"}, {"measurement": "side effects in human clinical studies", "setting": "[10]", "value": "myelosuppression, neutropenia, and thrombocytopenia"}, {"measurement": "anti-tumor effect in vitro", "setting": "[11]", "value": "significant anti-tumor effects"}, {"measurement": "pIC50", "setting": "[12]", "value": 5.96}, {"measurement": "topoisomerase I IC50", "setting": "[12]", "value": 0.504, "unit": "µg/mL"}, {"measurement": "in vivo antitumor efficacy", "setting": "[13]", "value": "superior to unmodified camptothecin"}]}]}
